Read-outs that look alike come from different tables or passages of the source.

What all share (format): in vivo
Experiment [1] relates to giant foxtail (Setaria faberii). Briefly: Test A preemergence. The conditions noted are these: Setaria faberi, pre-emergence, 240 h; for pest or weed control at 125 g/ha: 125 g ai/ha, Preemergence, visual injury rating after approximately 10 d, read-out: Foxtail, Giant plant response rating (0 to 100 scale, 0 is no effect, 100 is complete control); for pest or weed control at 500 g/ha: 500 g ai/ha, preemergence, visual injury rating about 10 d after treatment, 0 to 100 scale (0 no effect, 100 complete control), read-out: Foxtail, Giant plant response rating. The gist of the method:
(§1)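 Each rating is a visual injury score from 0 to 100 given about 10 d after treatment, judged against untreated controls kept alongside in the greenhouse. In loam soil–sand blend, seeds got a preemergence directed soil spray, while postemergence plants were 2 to 10 cm tall at spraying.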

Experiment [2] concerns barnyardgrass (Echinochloa crus-galli). Nature of the experiment: Test B flooded paddy test. The conditions noted are these: Echinochloa crus-galli, 250 g ai/ha, Flood; 0 to 100 scale where 0 is no effect and 100 is complete control; read-out: Barnyardgrass plant response rating. The gist of the method:
(§2)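 Response scored visually against untreated controls, 0 = no effect and 100 = complete control, 13–15 d after treatment in the greenhouse. Compounds added to paddy water held 3 cm above soil surface. Treatment given at 2-leaf stage.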

The next experiment has as its system rice (Oryra sativa). Briefly: Test B flooded paddy test. The conditions noted are these: Oryza sativa, 250 g ai/ha, Flood; 0 to 100 scale where 0 is no effect and 100 is complete control; read-out: Rice plant response rating. The gist of the method:
as §2

Experiment [3] concerns sedge, umbrella (small-flower umbrella sedge, Cyperus difformis). Nature of the experiment: Test B flooded paddy test. The conditions noted are these: Cyperus difformis, 250 g ai/ha, Flood; 0 to 100 scale where 0 is no effect and 100 is complete control; read-out: Sedge, Umbrella plant response rating. The gist of the method:
as §2

Experiment [4] deals with ducksalad (Heteranthera limosa). Briefly: Test B flooded paddy test. Conditions: Heteranthera limosa, 250 g ai/ha, Flood; 0 to 100 scale where 0 is no effect and 100 is complete control; read-out: Ducksalad plant response rating. The gist of the method: as §2
Experiment [5] has as its system wheat (Triticum aestivum). Nature of the experiment: Test A postemergence. Conditions: Triticum aestivum, post-emergence, 240 h, 125 g ai/ha, postemergence; visual injury on 0 to 100 scale (0 no effect, 100 complete control), approx. 10 d; read-out: Wheat plant response rating. In a few lines: as §1
In a further experiment the test system is Kochia (Kochia scoparia). Nature of the experiment: Test A postemergence. The conditions noted are these: Bassia scoparia, post-emergence, 240 h, postemergence, approx. 10 d; for pest or weed control at 125 g/ha: 125 g ai/ha, visual injury on 0 to 100 scale (0 no effect, 100 complete control), read-out: Kochia plant response rating; for pest or weed control at 500 g/ha: 500 g ai/ha, visual injury, 0 to 100 scale (0 no effect, 100 complete control), read-out: Plant response rating, Kochia. The gist of the method: as §1

In the next experiment the test system is corn (Zea mays). Briefly: Test A postemergence. The conditions noted are these: Zea mays, post-emergence, 240 h; for Corn plant response rating (crop injury, 0 = no effect, 100 = complete kill) at 500 g/ha: 500 g ai/ha, visual injury, 0 to 100 scale (0 no effect, 100 complete control); for Corn plant response rating (crop injury, 0 = no effect, 100 = complete kill) at 500 g/ha / plant injury at 125 g/ha: postemergence, approx. 10 d; for plant injury at 125 g/ha: visual injury on 0 to 100 scale (0 no effect, 100 complete control), read-out: Corn plant response rating. In a few lines: as §1

For experiment [6], the system named is giant foxtail (Setaria faberii). Briefly: Test A postemergence. The conditions noted are these: Setaria faberi, post-emergence, 240 h, postemergence, approx. 10 d; for pest or weed control at 125 g/ha: 125 g ai/ha, visual injury on 0 to 100 scale (0 no effect, 100 complete control), read-out: Foxtail, Giant plant response rating; for pest or weed control at 500 g/ha: 500 g ai/ha, visual injury, 0 to 100 scale (0 no effect, 100 complete control), read-out: Plant response rating, Foxtail, Giant. The gist of the method: as §1

The test system of experiment [7] is blackgrass (Alopecurus myosuroides). Nature of the experiment: Test A postemergence. The conditions noted are these: Alopecurus myosuroides, post-emergence, 240 h; for pest or weed control at 125 g/ha: 125 g ai/ha; for pest or weed control at 500 g/ha: 500 g ai/ha, visual injury, 0 to 100 scale (0 no effect, 100 complete control). The gist of the method:
as §1

Experiment [8] relates to barnyardgrass (Echinochloa crus-galli). Briefly: Test A postemergence. The conditions noted are these: Echinochloa crus-galli, post-emergence, 240 h; for pest or weed control at 125 g/ha: 125 g ai/ha; for pest or weed control at 500 g/ha: 500 g ai/ha, visual injury, 0 to 100 scale (0 no effect, 100 complete control). In a few lines:
as §1

Experiment [9] concerns Galium (catchweed bedstraw, Galium aparine). Briefly: Test A postemergence. The conditions noted are these: Galium, post-emergence, 240 h, postemergence, approx. 10 d; for pest or weed control at 125 g/ha: 125 g ai/ha, visual injury on 0 to 100 scale (0 no effect, 100 complete control), read-out: Galium plant response rating; for pest or weed control at 500 g/ha: 500 g ai/ha, visual injury, 0 to 100 scale (0 no effect, 100 complete control), read-out: Plant response rating, Galium. The gist of the method: as §1

Experiment [10] deals with pigweed (Amaranthus retroflexus). Briefly: Test A postemergence. The conditions noted are these: Amaranthus retroflexus, post-emergence, 240 h, 125 g ai/ha, postemergence; visual injury on 0 to 100 scale (0 no effect, 100 complete control), approx. 10 d; read-out: Pigweed plant response rating. In a few lines:
as §1

Experiment [11] concerns ryegrass, Italian (Italian ryegrass, Lolium multiflorum). Nature of the experiment: Test A postemergence. The conditions noted are these: Lolium multiflorum, post-emergence, 240 h, 125 g ai/ha, postemergence; visual injury on 0 to 100 scale (0 no effect, 100 complete control), approx. 10 d; read-out: Ryegrass, Italian plant response rating. In a few lines: as §1
The test system of experiment [12] is ragweed (common ragweed, Ambrosia elatior). Briefly: Test A postemergence. The conditions noted are these: Ambrosia artemisiifolia, post-emergence, 240 h, 125 g ai/ha, postemergence; visual injury on 0 to 100 scale (0 no effect, 100 complete control), approx. 10 d; read-out: Ragweed plant response rating. In a few lines:
as §1

[13] abbreviates: postemergence, approx. 10 d, read-out: Plant response rating, Blackgrass.
Where [14] appears, read: postemergence, approx. 10 d, read-out: Plant response rating, Barnyardgrass.
[15] abbreviates: postemergence, visual injury on 0 to 100 scale (0 no effect, 100 complete control), approx. 10 d, read-out: Blackgrass plant response rating.
The mark [16] stands for this setting: postemergence, visual injury on 0 to 100 scale (0 no effect, 100 complete control), approx. 10 d, read-out: Barnyardgrass plant response rating.

With `Cc1ccc([C@H]2CN(C)C(=O)[C@@H]2C(=O)Nc2cccc(F)c2F)cc1C` [Compound 1039], the pest or weed control at 125 g/ha in [1] amounted to 90%; in the experiment on Kochia (Kochia scoparia), 40%; in experiment [6] it was 90%; in experiment [7] (Postemergence, visual injury after approximately 10 d, 0 to 100 scale where 0 is no effect and 100 is complete control, read-out: Plant response rating, Blackgrass), 30%; in [8] (Postemergence, visual injury after approximately 10 d, 0 to 100 scale where 0 is no effect and 100 is complete control, read-out: Plant response rating, Barnyardgrass) it was 90%; in [9], 40%. Further, the results for the pest or weed control at 125 g/ha in experiment [10], in [11] and in [12] were 0%, 50% and 10%, respectively. Besides, the pest or weed control at 500 g/ha in experiment [1] worked out at 100%; in the experiment with Kochia (Kochia scoparia) it was 60%; in [6] it was 90%; in experiment [7] (setting [13]), 40%; in [8] (setting [14]), 90%; in experiment [9] it was 60%. Moreover, the pest or weed control at 250 g/ha in experiment [2] came out at 65%; in the experiment on rice (Oryra sativa), 0%; in [3], 0%; in experiment [4], 90%. Also, in [5], the plant injury at 125 g/ha was determined as 50%. Besides, the Corn plant response rating (crop injury, 0 = no effect, 100 = complete kill) at 125 g/ha with corn (Zea mays) (125 g ai/ha, Postemergence, visual injury after approximately 10 d, 0 to 100 scale where 0 is no effect and 100 is complete control) came to 70%. Moreover, the Corn plant response rating (crop injury, 0 = no effect, 100 = complete kill) at 500 g/ha in the experiment on corn (Zea mays) stood at 70%.
Take `Cc1cc([C@H]2CNC(=O)[C@@H]2C(=O)Nc2ccc(F)cc2F)ccc1C(F)(F)F` [Compound 1043]: the pest or weed control at 125 g/ha in [1] was 70%; in the experiment with Kochia (Kochia scoparia) it was 0%; in experiment [6] it was 70%; in [7] (setting [15]), 20%; in [8] (setting [16]), 50%; in experiment [9] it was 20%. Moreover, the pest or weed control at 125 g/ha in [10], in experiment [11] and in experiment [12] was 0% in each case. The pest or weed control at 500 g/ha in experiment [1] is 90%; with Kochia (Kochia scoparia), 40%; in experiment [6], 80%; in experiment [7] (setting [13]), 30%; in [8] (setting [14]), 80%; in experiment [9], 40%. Also, the pest or weed control at 250 g/ha in [2] was 0%; with rice (Oryra sativa), 0%; in [3], 0%; in [4], 90%. Also, the plant injury at 125 g/ha worked out at 0% in experiment [5] and 20% with corn (Zea mays) (125 g ai/ha). In the experiment with corn (Zea mays), this compound gave a Corn plant response rating (crop injury, 0 = no effect, 100 = complete kill) at 500 g/ha of 60%.
For the compound `CN1CC(c2ccccc2OC(F)(F)C(F)F)C(C(=O)Nc2ccccc2F)C1=O` (stereo not shown) [Compound 1053], the pest or weed control at 125 g/ha (in experiment [1]; in the experiment with Kochia (Kochia scoparia); in [6]; in experiment [7] (setting [15]); in experiment [8] (setting [16]); in experiment [9]) was 0% each time. Further, the pest or weed control at 125 g/ha in experiment [10], in experiment [11] and in experiment [12] was 0% each time. For the same compound, the pest or weed control at 500 g/ha (in experiment [1]; in the experiment on Kochia (Kochia scoparia); in experiment [6]; in experiment [7] (setting [13]); in experiment [8] (setting [14]); in [9]) was 0% in each case. In addition, the pest or weed control at 250 g/ha (in [2]; in the experiment on rice (Oryra sativa); in experiment [3]; in experiment [4]) was 0% in each case. Further, the plant injury at 125 g/ha (in experiment [5]; in the experiment on corn (Zea mays) (125 g ai/ha)) was 0% in each case. In addition, the Corn plant response rating (crop injury, 0 = no effect, 100 = complete kill) at 500 g/ha in the experiment on corn (Zea mays) came to 0%.
As to `O=C1NCC(c2ccccc2OC(F)(F)C(F)F)C1C(=O)Nc1cccc(F)c1F` (stereo not shown) [Compound 1054], the pest or weed control at 125 g/ha (in [1]; with Kochia (Kochia scoparia); in experiment [6]; in experiment [7] (setting [15]); in experiment [8] (setting [16]); in experiment [9]) was 0% in each case. In addition, the pest or weed control at 125 g/ha in [10], in [11] and in [12] was 0% throughout. Also, the pest or weed control at 500 g/ha (in experiment [1]; with Kochia (Kochia scoparia); in experiment [6]; in experiment [7] (setting [13]); in experiment [8] (setting [14]); in [9]) was 0% each time. The pest or weed control at 250 g/ha (in experiment [2]; in the experiment with rice (Oryra sativa); in experiment [3]; in experiment [4]) was 0% each time. Moreover, the plant injury at 125 g/ha (in experiment [5]; in the experiment with corn (Zea mays) (125 g ai/ha)) was 0% throughout. Besides, the Corn plant response rating (crop injury, 0 = no effect, 100 = complete kill) at 500 g/ha with corn (Zea mays) was determined as 0%.
